On the set-up of data set [1]: method as in PMID 30544701. The note with it: method not given, ref [45], cited from earlier work.
A short description of data set [2]: CaCo2 Transwell transport (Papp, efflux ratio). The note with it: human; for efflux ratio at 180 min, 10 µM / efflux ratio at 180 min, 20 µM: read-out: Efflux Ratio (Papp B–A / Papp A–B); for Papp A→B at 180 min, 10 µM / Papp A→B at 180 min, 20 µM: read-out: Papp (Apical Basolateral); for Papp B→A at 180 min, 10 µM / Papp B→A at 180 min, 20 µM: read-out: Papp (Basolateral Apical); for efflux ratio at 180 min, 20 µM: Caco-2, 20 µM. Type of data set: in vitro ADME, human. How it is done:
(§1) The Transwell system was developed using the wild type Caco-2 cell line (passage 15–25) cultured in Dulbecco’s […] medium (DMEM) at standard conditions of 37 °C, 5% CO2, and 100% humidity as previously reported. […] To ensure a controlled growth environment the plate was covered with Breathe-Easier cell culture foil during the incubation period. The integrity of the developed monolayer was assessed by TEER before administration of compound solutions and after the final sampling stage.
(§2) The initial concentration of the drug was verified from a 20 µL sample taken immediately from the donor compartment after drug administration (t = 0).
(§3) The permeability coefficient (Papp) represents a measure for the efficiency of transport and was calculated with the following equation: Papp=ΔQ/Δt×V/C0⋅A where ∆Q/∆t = the rate of increase in drug concentration (accumulative mass transport) in the receiver compartment over time (µM/s), V = volume in the receiver compartment (mL), C0 = the initial concentration of drug in the donor compartment (µM), and A = the membrane surface area (cm^2).
(§4) To take into account the slightly nonlinear transfer characteristics of each compound, the rate of increase in drug concentration was determined for each time period and the Papp was then calculated. The average Papp was then determined with units of cm/s × 10^−6 or µm/s.
(§5) The efflux ratio was calculated according to the equation: Efflux ratio=PappB→A/PappA→B.
(§6) Statistical significance was determined using a simple Student’s t-test where a p value of <0.05 was considered significant.

For data set [3], the system named is CaCo2 monolayer. Briefly: CaCo2 Transwell transport (Papp, efflux ratio). Type of data set: in vitro ADME, human. To be noted: for Papp basolateral to apical: B–A. How it is done:
as §1, §2, §3, §4, §5, §6
A general note: Caco-2 monolayers are a common model of the intestinal barrier.

For data set [4], the system named is CaCo2 cells. Briefly: Intracellular accumulation in CaCo2 Transwell cells at the end of the transport period. Type of data set: in vitro ADME, human. The note with it: A->B incubation. The protocol: (§7) In order to get insight in the barrier role of the CaCo2 model system, we determined the intracellular accumulation of the TKISs at the end of the transport period, in normal monolayers of CaCo2 cells and in several other colon cancer cell lines. At the end of the transport period (both from the B->A and A->B incubations), cells were harvested and intracellular accumulation was determined.
These cells were exposed to 20 μM of a TKI and were harvested after 2 h for determination of TKI concentration with LC-MS-MS. Values are means ± SEM for the number of experiments described in Figure 3, Figure 4, and Figure 5 and from three separate experiments for the monolayer CaCo2 and WiDr cells. […] A->B, mass transport from A to B; B->A, mass transport from B to A. For AFA, CRI, and DAS, no data in WiDr cells were available. […] The bar heights were not read.
In a different set of experiments, the CaCo2 cells were cultured in 6-wells plates as monolayers until semiconfluency. Two other colon cancer cell lines, WiDr and HT29, were cultured similarly. These cells were exposed for 2 h to various TKIs at concentrations varying from 50 nM to 20 µM). […] At the end of the incubation, cells were harvested, as described earlier, and extracted for drug analysis using LC-MS-MS as described above.

Data set [5] is described as follows: Disposition in blood compartments (whole blood, plasma, serum) of patients. Type of data set: in vivo, human. The note with it: for blood plasma ratio: human, whole blood and plasma, oral. How it is done:
Each individual sample was divided into two components; a 1 mL of tube of whole blood and 0.5 of plasma, each sample was stored at −20 °C until analysis could be performed. An additional serum sample was also obtained for patients treated with erlotinib. Blood samples for afatinib were obtained from NSCLC patients after 4 days receiving the standard daily dose of 40 mg.
Blood samples were taken at 1, 2, and 30 days after the start of treatment. Samples were separated from the whole blood into plasma, serum, and a packed red blood cell pellet (using the MESED apparatus). In a dose escalation study in order to determine whether a high pulsatile dose of sorafenib could be given to patients, we analyzed red blood cells and whole blood in 12 patients treated with sorafenib at total doses ranging from 2000 to 2800 mg daily. From these patients, samples were collected in 3 cycles.
For sunitinib, initially pharmacokinetic samples were collected over the first 24 h period from a single patient, with a renal cell carcinoma receiving a nonstandard treatment schedule (700 mg biweekly), in comparison to the standard 50 mg daily dose. Whole blood samples were divided into plasma, serum, and a packed red blood cell pellet. This cohort could later be extended with 6 patients treated with 800 mg sunitinib every 2 weeks enrolled in a clinical study to determine the tolerability of pulsatile sunitinib.
Five blood samples were taken over a 5-month period and divided into whole blood, an extracted 100 µL of red blood cells, and a plasma sample.

The test system of data set [6] is CaCo2 monolayer. The note with it: cited from earlier work.
The test system of data set [7] is HT29 cells. Briefly: Intracellular accumulation in HT29 colon cancer cells. Type of data set: in vitro ADME. To be noted: after 24 h. The protocol: as §7
In a different set of experiments, the CaCo2 cells were cultured in 6-wells plates as monolayers until semiconfluency. Two other colon cancer cell lines, WiDr and HT29, were cultured similarly. […]

[8] abbreviates: Caco-2, with erlotinib (co-incubated, concentration not stated), 10 µM, with erlotinib.

Values joined by “and” are separate entries in the source; they are usually repeats but may differ in a detail not shown here. Equal entries are not always repeated. Where two headings read alike, the source gives them in different places. A value given as a limit tells only on which side of the number the result lay.

Results on five molecules are retold here after paper PMC7696666, “Epithelial Transfer of the Tyrosine Kinase Inhibitors Erlotinib, Gefitinib, Afatinib, Crizotinib, Sorafenib, Sunitinib, and Dasatinib: Implications for Clinical Resistance” (Cancers, 2020).

Regarding `CN(C)C/C=C/C(=O)Nc1cc2c(Nc3ccc(F)c(Cl)c3)ncnc2cc1O[C@H]1CCOC1` [Afatinib, afatinib], in data set [1], the “Log P” value is reported as 3.59, the “Log D (pH 5.5)” value is listed as 1.00 and the “Log D (pH 7.5)” value is given as 2.87. For the same molecule, in data set [2] (Caco-2, 10 µM), the efflux ratio at 180 min, 10 µM was over 5; the Papp A→B at 180 min, 10 µM was 1.5 ± 2.2 ×10⁻⁶ cm/s; the Papp B→A at 180 min, 10 µM is 10.9 ± 5 ×10⁻⁶ cm/s. For the same molecule, in data set [3] (10 µM), the “Efflux Ratio (Papp B–A / Papp A–B)” value is reported as 7.3 and the Papp basolateral to apical came to 10.9 ×10⁻⁶ cm/s. In data set [3] (10 µM, A–B), the Papp apical to basolateral was determined as 1.48 ×10⁻⁶ cm/s and the “Total amount transferred apical to basolateral in 3 h” value (“Total amount transferred apical” for short) amounted to 90 pmol. Moreover, the Papp apical to basolateral in data set [3] (10 µM, A–B, listed as afatinib) came to 1.5 ×10⁻⁶ cm/s. In addition, in data set [3] (10 µM, listed as afatinib), the “Efflux Ratio (Papp B–A / Papp A–B)” value was 7.34 and > 6. In addition, the “Intracellular accumulation at the end of the transfer period (A->B)” value (“Intracellular accumulation at the end” for short) in data set [4] amounted to 0.45 pmol/μg protein.

As for `C[C@@H](Oc1cc(-c2cnn(C3CCNCC3)c2)cnc1N)c1c(Cl)ccc(F)c1Cl` [Crizotinib, crizotinib], the “Whole blood concentration higher than plasma” value in data set [5] (standard dose (250 mg twice daily), single patient) is 30%. In data set [1], the “Log P” value is given as 4.73, the “Log D (pH 5.5)” value is reported as 0.30 and the “Log D (pH 7.5)” value is 1.80. Moreover, in data set [2] (Caco-2, 10 µM), the efflux ratio at 180 min, 10 µM is over 5 and the Papp B→A at 180 min, 10 µM was 7.7 ± 5.5 ×10⁻⁶ cm/s. Besides, in data set [3] (10 µM, A–B), the “Papp (Apical Basolateral)” value is reported as “Unmeasurable” and the “Total amount transferred apical” value is recorded as “nothing could be detected”. In addition, the “Effect of exposure on CaCo2 cells and membrane” value in data set [3] (20 µM exposure) is “caused cell death and disruption of the membrane”. Also, the “A–B mass transport at 20 µM, fold lower than B–A mass transport at 10 µM” value in data set [3] (A–B 20 µM vs B–A 10 µM) was found to be 20 fold. Besides, the “Intracellular accumulation at the end” value in data set [4] was determined as 2.11 pmol/μg protein.

On to `COc1cc2ncnc(Nc3ccc(F)c(Cl)c3)c2cc1OCCCN1CCOCC1` [Gefitinib, gefitinib], for which, in data set [1], the “Log P” value is recorded as 4.11, the “Log D (pH 5.5)” value was 1.96 and the “Log D (pH 7.5)” value is given as 3.55. In data set [2] (Caco-2, 10 µM), the efflux ratio at 180 min, 10 µM worked out at 0.33; the Papp A→B at 180 min, 10 µM was found to be 0.57 ± 0.43 ×10⁻⁶ cm/s; the Papp B→A at 180 min, 10 µM is 0.19 ± 0.12 ×10⁻⁶ cm/s. For the same molecule, in data set [3] (10 µM), the “Efflux Ratio (Papp B–A / Papp A–B)” value was 0.3 and the “Papp basolateral to apical” value is 0.19 µm/s. The Papp apical to basolateral in data set [3] (10 µM, A–B) worked out at 0.57 ×10⁻⁶ cm/s. For the same molecule, the “Papp (Apical Basolateral)” value in data set [6] (20 µM, A–B, previously reported, ref [39]) is given as 0.38 ± 0.05 ×10^−6 cm/s. Further, in data set [6] (20 µM, B–A, previously reported, ref [39]), the “Papp (Basolateral Apical)” value is on record as 0.39 ± 0.038 ×10^−6 cm/s. Moreover, the “Efflux Ratio (Papp B–A / Papp A–B)” value in data set [6] (20 µM, previously reported, ref [39]) was 1.0. The “Efflux ratio after treatment with NaN3” value in data set [6] (after NaN3, ref [38],[39]) is given as 0.46. Moreover, in data set [4], the “Intracellular accumulation at the end” value came out at 0.79 pmol/μg protein.

Consider `CNC(=O)c1cc(Oc2ccc(NC(=O)Nc3ccc(Cl)c(C(F)(F)F)c3)cc2)ccn1` [Sorafenib, sorafenib], for which the “Intracellular accumulation in HT29 cells” value in data set [7] is 6 pmol/μg protein. The blood plasma ratio in data set [5] (2000–2800 mg cumulative daily dose, 12 patients, mean ± SD, read-out: Whole blood/plasma ratio) stood at 1.2 ± 0.4. The blood plasma ratio in data set [5] (clinical samples, read-out: Blood to plasma ratio) was over 3. In addition, in data set [5] (low dose (400 mg twice daily), several patients), the “Fold increase of concentration in whole blood compared to plasma” value is reported as 2–4 fold. In addition, in data set [1], the “Log P” value is recorded as 5.16, the “Log D (pH 5.5)” value is 4.26 and the “Log D (pH 7.5)” value is listed as 4.26. In data set [2] (Caco-2, 10 µM), the efflux ratio at 180 min, 10 µM turned out to be 0.92; the Papp A→B at 180 min, 10 µM was determined as 10.1 ± 9.5 ×10⁻⁶ cm/s; the Papp B→A at 180 min, 10 µM was determined as 9.3 ± 5.8 ×10⁻⁶ cm/s. The efflux ratio at 180 min, 20 µM in data set [2] came out at 0.86. In data set [2] (setting [8]), the efflux ratio at 180 min, 10 µM is 0.71; the Papp A→B at 180 min, 10 µM was 18.6 ± 13.2 ×10⁻⁶ cm/s; the Papp B→A at 180 min, 10 µM came out at 13.3 ± 10.5 ×10⁻⁶ cm/s. Also, in data set [2] (Caco-2), the Papp A→B at 180 min, 20 µM is 14.1 ± 11.5 ×10⁻⁶ cm/s and the Papp B→A at 180 min, 20 µM turned out to be 11.4 ± 5.6 ×10⁻⁶ cm/s. In addition, the “Efflux Ratio (Papp B–A / Papp A–B)” value in data set [3] (20 µM) worked out at 0.81. For the same molecule, the “Total amount transferred apical” value in data set [3] (20 µM, A–B) is “approximately 950 pmol”. For the same molecule, the “Efflux Ratio (Papp B–A / Papp A–B)” value in data set [3] (20 µM, listed as sorafenib) stood at 0.8. In addition, the “Intracellular accumulation at the end” value in data set [4] turned out to be 1.65 pmol/μg protein.

As to `CCN(CC)CCNC(=O)c1c(C)[nH]c(/C=C2\C(=O)Nc3ccc(F)cc32)c1C` [Sunitinib, sunitinib], the “Intracellular accumulation in HT29 cells” value in data set [7] is 32.2 pmol/μg protein. For the same molecule, in data set [5] (50 mg, standard treatment at 50 mg, read-out: Whole blood/plasma ratio), the blood plasma ratio worked out at 0.7. In addition, in data set [5] (single dose 14-fold higher than standard, 7 patients, mean ± SD, read-out: Whole blood/plasma ratio), the blood plasma ratio came out at 2.6 ± 0.7. Also, in data set [5] (standard dosing regimen), the “Whole blood concentration lower than plasma” value is reported as 40–50%. Moreover, in data set [1], the “Log P” value is listed as 3.15, the “Log D (pH 5.5)” value is given as −0.09 and the “Log D (pH 7.5)” value is 1.09. Also, in data set [2], the efflux ratio at 180 min, 20 µM came out at 1.6. In data set [2] (Caco-2), the Papp A→B at 180 min, 20 µM amounted to 7.7 ± 4.6 ×10⁻⁶ cm/s and the Papp B→A at 180 min, 20 µM is 12.6 ± 12.3 ×10⁻⁶ cm/s. The “Total amount transferred apical” value in data set [3] (20 µM, A–B) was 581.2 pmol. The “Intracellular accumulation at the end” value in data set [4] is 11.9 pmol/μg protein.

Broadly, the Log P is a log measure of how a compound divides between an organic and an aqueous phase.
